Each molecule was assayed on recombinant NL4-3 virus (Renilla luciferase in nef, Gag P373S; NLRluc) in MT-2 cells (assay: whole plant or invertebrate). Conditions: Renilla, NL43.
Assay type: cell-based, HIV
Method in brief: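 Inhibitor potency against the reporter virus comes from reduced luciferase activity in infected MT-2 cells exposed to a dilution series of compound over 4-5 days.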

| Compound | EC50 |
| --- | --- |
| C=C(C)[C@@H]1CC[C@]2(NCCN3CCS(=O)(=O)CC3)CC[C@]3(C)[C@H](CC[C@@H]4[C@@]5(C)CC=C(c6ccc(C(=O)NS(=O)(=O)C7CC7)cc6)C(C)(C)[C@@H]5CC[C@]43C)[C@@H]12 [Example 164, N-(cyclopropylsulfonyl)-4-((1R,3aS,5aR,5bR,7aR,11aS,11bR,13aR,13bR)-3a-((2-(1,1-dioxido-4-thiomorpholinyl)ethyl)amino)-1-isopropenyl-5a,5b,8,8,11a-pentamethyl-2,3,3a,4,5,5a,5b,6,7,7a,8,11,11a,11b,12,13,13a,13b-octadecahydro-1H-cyclopenta[a]chrysen-9-yl)benzamide] | < 100 nM |
| C=C(C)[C@@H]1CC[C@]2(NCCN3CCC(C(=O)N(C)C)CC3)CC[C@]3(C)[C@H](CC[C@@H]4[C@@]5(C)CC=C(c6ccc(C(=O)O)cc6)C(C)(C)[C@@H]5CC[C@]43C)[C@@H]12 [Example 171, 4-((1R,3aS,5aR,5bR,7aR,11aS,11bR,13aR,13bR)-3a-(2-(4-(dimethylcarbamoyl)piperidin-1-yl)ethylamino)-5a,5b,8,8,11a-pentamethyl-1-(prop-1-en-2-yl)-2,3,3a,4,5,5a,5b,6,7,7a,8,11,11a,11b,12,13,13a,13b-octadecahydro-1H-cyclopenta[a]chrysen-9-yl)benzoic acid] | < 100 nM |

Same assay, conditions: Renilla, NL43, luciferase activity in cells infected for 4-5 days with NLRluc recombinants, serial dilutions of inhibitor; class symbols (key in Table 1); read-out: EC50

| Compound | EC50 |
| --- | --- |
| C=C(C)[C@@H]1CC[C@]2(NCC3CC3C(=O)O)CC[C@]3(C)[C@H](CC[C@@H]4[C@@]5(C)CC=C(c6ccc(C(=O)O)cc6)C(C)(C)[C@@H]5CC[C@]43C)[C@@H]12 (stereo partly drawn) [Example 157, 4-((1R,3aS,5aR,5bR,7aR,11aS,11bR,13aR,13bR)-3a-((2-carboxycyclopropyl)methylamino)-5a,5b,8,8,11a-pentamethyl-1-(prop-1-en-2-yl)-2,3,3a,4,5,5a,5b,6,7,7a,8,11,11a,11b,12,13,13a,13b-octadecahydro-1H-cyclopenta[a]chrysen-9-yl)benzoic acid] | < 100 nM |
| C=C(C)[C@@H]1CC[C@]2(NCc3ccsc3)CC[C@]3(C)[C@H](CC[C@@H]4[C@@]5(C)CC=C(c6ccc(C(=O)O)cc6)C(C)(C)[C@@H]5CC[C@]43C)[C@@H]12 [Example 158, 4-((1R,3aS,5aR,5bR,7aR,11aS,11bR,13aR,13bR)-5a,5b,8,8,11a-pentamethyl-1-(prop-1-en-2-yl)-3a-(thiophen-3-ylmethylamino)-2,3,3a,4,5,5a,5b,6,7,7a,8,11,11a,11b,12,13,13a,13b-octadecahydro-1H-cyclopenta[a]chrysen-9-yl)benzoic acid] | < 100 nM |
| C=C(C)[C@@H]1CC[C@]2(NCCN3CCOCC3)CC[C@]3(C)[C@H](CC[C@@H]4[C@@]5(C)CC=C(c6ccc(C(=O)O)cc6)C(C)(C)[C@@H]5CC[C@]43C)[C@@H]12 [Example 159, 4-((1R,3aS,5aR,5bR,7aR,11aS,11bR,13aR,13bR)-5a,5b,8,8,11a-pentamethyl-3a-(2-morpholinoethylamino)-1-(prop-1-en-2-yl)-2,3,3a,4,5,5a,5b,6,7,7a,8,11,11a,11b,12,13,13a,13b-octadecahydro-1H-cyclopenta[a]chrysen-9-yl)benzoic acid] | < 100 nM |
| C=C(C)[C@@H]1CC[C@]2(N(CCN3CCOCC3)CCN3CCOCC3)CC[C@]3(C)[C@H](CC[C@@H]4[C@@]5(C)CC=C(c6ccc(C(=O)O)cc6)C(C)(C)[C@@H]5CC[C@]43C)[C@@H]12 [Example 160, 4-((1R,3aS,5aR,5bR,7aR,11aS,11bR,13aR,13bR)-3a-(bis(2-morpholinoethyl)amino)-5a,5b,8,8,11a-pentamethyl-1-(prop-1-en-2-yl)-2,3,3a,4,5,5a,5b,6,7,7a,8,11,11a,11b,12,13,13a,13b-octadecahydro-1H-cyclopenta[a]chrysen-9-yl)benzoic acid] | < 100 nM |
| C=C(C)[C@@H]1CC[C@]2(NCc3cscn3)CC[C@]3(C)[C@H](CC[C@@H]4[C@@]5(C)CC=C(c6ccc(C(=O)O)cc6)C(C)(C)[C@@H]5CC[C@]43C)[C@@H]12 [Example 161, 4-((1R,3aS,5aR,5bR,7aR,11aS,11bR,13aR,13bR)-5a,5b,8,8,11a-pentamethyl-1-(prop-1-en-2-yl)-3a-(thiazol-4-ylmethylamino)-2,3,3a,4,5,5a,5b,6,7,7a,8,11,11a,11b,12,13,13a,13b-octadecahydro-1H-cyclopenta[a]chrysen-9-yl)benzoic acid] | < 100 nM |
| C=C(C)[C@@H]1CC[C@]2(NCc3csc(C)n3)CC[C@]3(C)[C@H](CC[C@@H]4[C@@]5(C)CC=C(c6ccc(C(=O)O)cc6)C(C)(C)[C@@H]5CC[C@]43C)[C@@H]12 [Example 162, 4-((1R,3aS,5aR,5bR,7aR,11aS,11bR,13aR,13bR)-5a,5b,8,8,11a-pentamethyl-3a-((2-methylthiazol-4-yl)methylamino)-1-(prop-1-en-2-yl)-2,3,3a,4,5,5a,5b,6,7,7a,8,11,11a,11b,12,13,13a,13b-octadecahydro-1H-cyclopenta[a]chrysen-9-yl)benzoic acid] | < 100 nM |
| CC(C)[C@@H]1CC[C@]2(NCCN3CCS(=O)(=O)CC3)CC[C@]3(C)[C@H](CC[C@@H]4[C@@]5(C)CC=C(c6ccc(C(=O)O)cc6)C(C)(C)[C@@H]5CC[C@]43C)[C@@H]12 [Example 163, 4-((1S,3aS,5aR,5bR,7aR,11aS,11bR,13aR,13bR)-3a-((2-(1,1-dioxido-4-thiomorpholinyl)ethyl)amino)-1-isopropyl-5a,5b,8,8,11a-pentamethyl-2,3,3a,4,5,5a,5b,6,7,7a,8,11,11a,11b,12,13,13a,13b-octadecahydro-1H-cyclopenta[a]chrysen-9-yl)benzoic acid] | < 100 nM |
| C=C(C)[C@@H]1CC[C@]2(NCCCN3CCOCC3)CC[C@]3(C)[C@H](CC[C@@H]4[C@@]5(C)CC=C(c6ccc(C(=O)O)cc6)C(C)(C)[C@@H]5CC[C@]43C)[C@@H]12 [Example 165, 4-((1R,3aS,5aR,5bR,7aR,11aS,11bR,13aR,13bR)-5a,5b,8,8,11a-pentamethyl-3a-(3-morpholinopropylamino)-1-(prop-1-en-2-yl)-2,3,3a,4,5,5a,5b,6,7,7a,8,11,11a,11b,12,13,13a,13b-octadecahydro-1H-cyclopenta[a]chrysen-9-yl)benzoic acid] | < 100 nM |
| C=C(C)[C@@H]1CC[C@]2(NCCc3ccncc3)CC[C@]3(C)[C@H](CC[C@@H]4[C@@]5(C)CC=C(c6ccc(C(=O)O)cc6)C(C)(C)[C@@H]5CC[C@]43C)[C@@H]12 [Example 166, 4-((1R,3aS,5aR,5bR,7aR,11aS,11bR,13aR,13bR)-5a,5b,8,8,11a-pentamethyl-1-(prop-1-en-2-yl)-3a-((2-(pyridin-4-yl)ethyl)amino)-2,3,3a,4,5,5a,5b,6,7,7a,8,11,11a,11b,12,13,13a,13b-octadecahydro-1H-cyclopenta[a]chrysen-9-yl)benzoic acid] | < 100 nM |
| C=C(C)[C@@H]1CC[C@]2(NCCN3CCSCC3)CC[C@]3(C)[C@H](CC[C@@H]4[C@@]5(C)CC=C(c6ccc(C(=O)O)cc6)C(C)(C)[C@@H]5CC[C@]43C)[C@@H]12 [Example 168, 4-((1R,3aS,5aR,5bR,7aR,11aS,11bR,13aR,13bR)-5a,5b,8,8,11a-pentamethyl-1-(prop-1-en-2-yl)-3a-(2-thiomorpholinoethylamino)-2,3,3a,4,5,5a,5b,6,7,7a,8,11,11a,11b,12,13,13a,13b-octadecahydro-1H-cyclopenta[a]chrysen-9-yl)benzoic acid] | < 100 nM |
| C=C(C)[C@@H]1CC[C@]2(NCCCN(C)C)CC[C@]3(C)[C@H](CC[C@@H]4[C@@]5(C)CC=C(c6ccc(C(=O)O)cc6)C(C)(C)[C@@H]5CC[C@]43C)[C@@H]12 [Example 169, 4-((1R,3aS,5aR,5bR,7aR,11aS,11bR,13aR,13bR)-3a-(3-(dimethylamino)propylamino)-5a,5b,8,8,11a-pentamethyl-1-(prop-1-en-2-yl)-2,3,3a,4,5,5a,5b,6,7,7a,8,11,11a,11b,12,13,13a,13b-octadecahydro-1H-cyclopenta[a]chrysen-9-yl)benzoic acid] | < 100 nM |
| C=C(C)[C@@H]1CC[C@]2(NCCN3CCC(C(=O)O)CC3)CC[C@]3(C)[C@H](CC[C@@H]4[C@@]5(C)CC=C(c6ccc(C(=O)O)cc6)C(C)(C)[C@@H]5CC[C@]43C)[C@@H]12 [Example 170, 1-(2-(((1R,3aS,5aR,5bR,7aR,11aS,11bR,13aR,13bR)-9-(4-carboxyphenyl)-5a,5b,8,8,11a-pentamethyl-1-(prop-1-en-2-yl)-2,3,3a,4,5,5a,5b,6,7,7a,8,11,11a,11b,12,13,13a,13b-octadecahydro-1H-cyclopenta[a]chrysen-3a-yl)amino)ethyl)piperidine-4-carboxylic acid] | < 100 nM |
| C=C(C)[C@@H]1CC[C@]2(NCCN3CCC(F)(F)CC3)CC[C@]3(C)[C@H](CC[C@@H]4[C@@]5(C)CC=C(c6ccc(C(=O)O)cc6)C(C)(C)[C@@H]5CC[C@]43C)[C@@H]12 [Example 172] | < 100 nM |

Same assay, conditions: Renilla, NL43, luciferase activity in cells infected for 4-5 days with NLRluc recombinants, serial dilutions of inhibitor; numeric values; read-out: EC50

| Compound | EC50 |
| --- | --- |
| C=C(C)[C@@H]1CC[C@]2(N(CCN3CCCC3)CCN3CCCC3)CC[C@]3(C)[C@H](CC[C@@H]4[C@@]5(C)CC=C(c6ccc(C(=O)O)cc6)C(C)(C)[C@@H]5CC[C@]43C)[C@@H]12 [Example 167, 4-((1R,3aS,5aR,5bR,7aR,11aS,11bR,13aR,13bR)-3a-(bis(2-(pyrrolidin-1-yl)ethyl)amino)-5a,5b,8,8,11a-pentamethyl-1-(prop-1-en-2-yl)-2,3,3a,4,5,5a,5b,6,7,7a,8,11,11a,11b,12,13,13a,13b-octadecahydro-1H-cyclopenta[a]chrysen-9-yl)benzoic acid] | 4 nM |
